Reference: US20250263415A1, “TERTIARY AMIDE DERIVATIVES SUBSTITUTED WITH 4-MEMBERED RING STRUCTURE” (Sumitomo Pharma Co., Ltd., priority 2024, published 2025)

Tests used:
Solubility test = assay type: physicochemical; details: pH 2.0 and pH 3.0 buffers
Description: The solubility was measured for Examples 7, 10, 20, 23, 24, and 30 to 34, Comparative Example 1, and Comparative Example 2. The test compound was added to 10 mmol/L glycine buffer (pH 2.0) and 10 mmol/L citrate buffer (pH 3.0), and the mixture was stored in a thermostatic chamber at 5° C. After standing overnight, the mixture was filtered through a membrane filter, and the concentration of the filtrate was measured by HPLC.
The HPLC measurement conditions are as follows.
HPLC conditions • Column: Acquity UPLC BEH C18, 1.7 μm, 50×2.1 mm • Column temperature: 40° C. • Mobile phase: A: 0.1% trifluoroacetic acid-containing water • B: acetonitrile • A/B (min): 95/5 (0)→0/100 (3.5)→0/100 (4)→95/5 (4.01)→95/5 (5) • Flow rate: 0.8 mL/min • Detection: UV visible detector, measurement wavelength 254 nm • Injection volume: 5 μL or • Column: Acquity UPLC BEH C18, 1.7 μm, 50×2.1 mm • Column temperature: 40° C. • Mobile phase: A: 0.1% trifluoroacetic acid-containing water • B: acetonitrile • A/B (min): • 80/20 (0)→40/60 (3.0)→0/100 (3.5)→0/100 (4)→80/20 (4.01)→80/20 (5) • Flow rate: 0.8 mL/min • Detection: UV visible detector, measurement wavelength 254 nm • Injection volume: 2 μL or • Column: Acquity UPLC BEH C18, 1.7 μm, 50×2.1 mm • Column temperature: 40° C. • Mobile phase: A: 0.1% trifluoroacetic acid-containing water • B: acetonitrile • A/B (min): • 80/20 (0)→40/60 (3.0)→0/100 (3.5)→0/100 (4)→100/0 (4.01)→100/0 (5) • Flow rate: 0.8 mL/min • Detection: UV visible detector, measurement wavelength 254 nm • Injection volume: 3 μL

[1] = Pharmacokinetic study in mice; assay type: in vivo
Description: The test compound was administered to 7-week-old female BALE/c (BALB/cAnN CrlCrlj) mice intravenously (dosage: 1 mg/kg) in a 50% PEG solution (0.01 mol/L HCl) or orally (dosage: 10 mg/kg) in a 0.5% methylcellulose aqueous solution, and blood was collected at the following times: • Intravenous administration: 5 min, 15 min, 30 min, 1 hr, 2 hr, 4 hr, 6 hr, and 24 hr after administration • Oral administration: 15 min, 30 min, 1 hr, 2 hr, 4 hr, 6 hr, and 24 hr after administration
The collected blood was centrifuged at 3000 rpm×10 min using a refrigerated centrifuge set at 4° C., and the obtained plasma was measured by LC-MS. A calibration curve was prepared from the value (peak ratio) obtained by dividing the peak area of the test substance by the peak area of the internal standard substance in MS and the concentration of the plasma calibration curve sample. The concentration in the sample was calculated from the peak ratio and the calibration curve of each sample.

G-401 xenograft [2] = assay: Drug efficacy evaluation by oral administration using G-401 xenograft model mice; assay type: in vivo
Description: (§1) G-401 cells (ATCC) were intradermally transplanted into 4-7-week-old BALB/cAnNCrj-nu/nu mice (CAnN.Cg-Foxnl/CrlCrlj, Jackson Laboratory Japan) at 5×10^5 cells/mouse. After confirming the engraftment of G-401 cells 10-40 days after transplantation, the test compound suspended in a solvent such as 0.5% methylcellulose solution was orally administered twice a day at a dose of 1-100 mg/kg. The tumor volume was measured over time from the start of administration, and the effect of tumor volume reduction by administration of the test compound was evaluated. The tumor volume can be calculated from the following equation using the minor axis and major axis of the tumor measured with an electronic caliper (Mitutoyo).
A control administration group administered with only a solvent such as 0.5% methylcellulose solution and a test compound administration group were compared, and the antitumor effect was evaluated by calculating T/C from the following equation.

G-401 xenograft [3] = assay: Drug efficacy evaluation by intravenous administration using G-401 xenograft mice model; assay type: in vivo; details: G-401 xenograft model
Description: as §1, with “as 10 mmol/L glycine buffer” for “as 0.5% methylcellulose”, “solution (pH 2.0)” for “solution”, “was” for “was orally”, “administered via the tail vein at least once” for “administered twice”, “a week” for “a day”, “of 0.015-20” for “of 1-100”
A control administration group administered with only a solvent such as 10 mmol/L glycine buffer solution (pH 2.0) and a test compound administration group were compared, and the antitumor effect was evaluated by calculating T/C from the following equation.

hDAT = hDAT (Homo sapiens (Human), UniProt Q01959); assay: Dopamine receptor inhibitory activity evaluation (binding assay, CHO-S/hDAT membranes); details: off-target
hDAT, sequence (Q01959 whole entry): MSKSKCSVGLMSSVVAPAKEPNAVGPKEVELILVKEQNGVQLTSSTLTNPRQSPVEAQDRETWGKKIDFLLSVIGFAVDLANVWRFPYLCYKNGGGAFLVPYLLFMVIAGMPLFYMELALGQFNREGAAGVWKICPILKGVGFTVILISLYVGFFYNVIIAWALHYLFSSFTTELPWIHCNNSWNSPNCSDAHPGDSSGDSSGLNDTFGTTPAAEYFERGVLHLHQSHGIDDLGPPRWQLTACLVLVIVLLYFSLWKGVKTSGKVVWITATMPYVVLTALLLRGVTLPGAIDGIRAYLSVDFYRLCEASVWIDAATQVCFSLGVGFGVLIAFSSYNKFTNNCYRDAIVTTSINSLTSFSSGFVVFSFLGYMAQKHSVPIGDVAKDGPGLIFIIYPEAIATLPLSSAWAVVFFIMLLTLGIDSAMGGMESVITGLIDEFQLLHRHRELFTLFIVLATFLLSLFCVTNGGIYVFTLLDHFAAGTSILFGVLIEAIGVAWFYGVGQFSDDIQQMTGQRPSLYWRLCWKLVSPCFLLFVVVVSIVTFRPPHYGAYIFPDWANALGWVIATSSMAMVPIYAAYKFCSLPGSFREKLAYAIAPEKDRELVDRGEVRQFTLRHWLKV
Description: The binding evaluation assay was outsourced to Eurofins. Specifically, CHO—S/hDAT cells were homogenized in an incubation buffer consisting of 50 mmol/L Tris-HCl, pH 7.4, 100 mmol/L NaCl, 1 μmol/L Leupeptin, and 10 μmol/L PMSF. The membrane pellet obtained by centrifugation was resuspended in the incubation buffer to prepare a membrane preparation. The test compound (1-10 μmol/L DMSO solution), the membrane preparation, and 0.15 nmol/L […] were mixed and incubated at 4° C. for 180 minutes. The cell membrane-[^125I]RTI-55 complex was bound to a GF/B filter mat by vacuum filtration and washed with 50 mmol/L Tris-HCl, pH 7.4. The effect on the receptor was assessed by measuring radioactivity using a scintillation counter.

hSERT = hSERT (Homo sapiens (Human), UniProt P31645); assay: Serotonin receptor inhibitory activity evaluation (binding assay, HEK293/hSERT membranes); details: off-target
hSERT, sequence (P31645 whole entry): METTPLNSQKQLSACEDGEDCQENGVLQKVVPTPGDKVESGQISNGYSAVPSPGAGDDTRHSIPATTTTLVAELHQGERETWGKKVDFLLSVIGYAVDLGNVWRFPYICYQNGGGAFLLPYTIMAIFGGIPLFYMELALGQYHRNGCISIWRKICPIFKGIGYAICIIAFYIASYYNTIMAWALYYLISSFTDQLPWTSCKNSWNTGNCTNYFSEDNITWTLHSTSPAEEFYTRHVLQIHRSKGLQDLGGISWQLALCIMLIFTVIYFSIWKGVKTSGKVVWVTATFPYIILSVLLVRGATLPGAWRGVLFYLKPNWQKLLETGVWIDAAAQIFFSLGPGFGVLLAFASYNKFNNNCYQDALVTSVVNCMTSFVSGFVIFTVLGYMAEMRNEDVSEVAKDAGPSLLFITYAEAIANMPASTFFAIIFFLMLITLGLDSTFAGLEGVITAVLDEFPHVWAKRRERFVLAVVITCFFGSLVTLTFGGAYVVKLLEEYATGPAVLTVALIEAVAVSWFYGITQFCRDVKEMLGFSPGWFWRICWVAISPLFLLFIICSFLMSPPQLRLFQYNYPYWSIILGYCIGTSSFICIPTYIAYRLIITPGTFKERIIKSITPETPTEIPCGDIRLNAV
Description: The binding evaluation assay was outsourced to Eurofins. Specifically, HEK293/hSERT cells were homogenized in a buffer consisting of 100 mmol/L NaCl, 1 μmol/L Leupeptin, 10 μmol/L PMSF, and 50 mmol/L Tris-HCl (pH7.4). The membrane pellet obtained by centrifugation was resuspended in an incubation buffer consisting of 50 mmol/L Tris-HCl (pH 7.4), 120 mmol/L NaCl, and 5 mmol/L KCl to prepare a membrane preparation. The test compound (1-10 μmol/L DMSO solution), the membrane preparation, and 0.4 nmol/L [^3H]Paroxetin were mixed and incubated at 25° C. for 60 minutes. The cell membrane-[^3H]Paroxetin complex was bound to a GF/B filter mat by vacuum filtration and washed with 50 mmol/L Tris-HCl (pH 7.4). The effect on the receptor was assessed by measuring radioactivity using a scintillation counter.

recombinant p300 = recombinant p300 (Homo sapiens (Human), UniProt Q09472); assay: HAT activity inhibition experiment (SensoLyte HAT(p300) Assay Kit); assay type: biochemical
recombinant p300, sequence (Q09472 whole entry): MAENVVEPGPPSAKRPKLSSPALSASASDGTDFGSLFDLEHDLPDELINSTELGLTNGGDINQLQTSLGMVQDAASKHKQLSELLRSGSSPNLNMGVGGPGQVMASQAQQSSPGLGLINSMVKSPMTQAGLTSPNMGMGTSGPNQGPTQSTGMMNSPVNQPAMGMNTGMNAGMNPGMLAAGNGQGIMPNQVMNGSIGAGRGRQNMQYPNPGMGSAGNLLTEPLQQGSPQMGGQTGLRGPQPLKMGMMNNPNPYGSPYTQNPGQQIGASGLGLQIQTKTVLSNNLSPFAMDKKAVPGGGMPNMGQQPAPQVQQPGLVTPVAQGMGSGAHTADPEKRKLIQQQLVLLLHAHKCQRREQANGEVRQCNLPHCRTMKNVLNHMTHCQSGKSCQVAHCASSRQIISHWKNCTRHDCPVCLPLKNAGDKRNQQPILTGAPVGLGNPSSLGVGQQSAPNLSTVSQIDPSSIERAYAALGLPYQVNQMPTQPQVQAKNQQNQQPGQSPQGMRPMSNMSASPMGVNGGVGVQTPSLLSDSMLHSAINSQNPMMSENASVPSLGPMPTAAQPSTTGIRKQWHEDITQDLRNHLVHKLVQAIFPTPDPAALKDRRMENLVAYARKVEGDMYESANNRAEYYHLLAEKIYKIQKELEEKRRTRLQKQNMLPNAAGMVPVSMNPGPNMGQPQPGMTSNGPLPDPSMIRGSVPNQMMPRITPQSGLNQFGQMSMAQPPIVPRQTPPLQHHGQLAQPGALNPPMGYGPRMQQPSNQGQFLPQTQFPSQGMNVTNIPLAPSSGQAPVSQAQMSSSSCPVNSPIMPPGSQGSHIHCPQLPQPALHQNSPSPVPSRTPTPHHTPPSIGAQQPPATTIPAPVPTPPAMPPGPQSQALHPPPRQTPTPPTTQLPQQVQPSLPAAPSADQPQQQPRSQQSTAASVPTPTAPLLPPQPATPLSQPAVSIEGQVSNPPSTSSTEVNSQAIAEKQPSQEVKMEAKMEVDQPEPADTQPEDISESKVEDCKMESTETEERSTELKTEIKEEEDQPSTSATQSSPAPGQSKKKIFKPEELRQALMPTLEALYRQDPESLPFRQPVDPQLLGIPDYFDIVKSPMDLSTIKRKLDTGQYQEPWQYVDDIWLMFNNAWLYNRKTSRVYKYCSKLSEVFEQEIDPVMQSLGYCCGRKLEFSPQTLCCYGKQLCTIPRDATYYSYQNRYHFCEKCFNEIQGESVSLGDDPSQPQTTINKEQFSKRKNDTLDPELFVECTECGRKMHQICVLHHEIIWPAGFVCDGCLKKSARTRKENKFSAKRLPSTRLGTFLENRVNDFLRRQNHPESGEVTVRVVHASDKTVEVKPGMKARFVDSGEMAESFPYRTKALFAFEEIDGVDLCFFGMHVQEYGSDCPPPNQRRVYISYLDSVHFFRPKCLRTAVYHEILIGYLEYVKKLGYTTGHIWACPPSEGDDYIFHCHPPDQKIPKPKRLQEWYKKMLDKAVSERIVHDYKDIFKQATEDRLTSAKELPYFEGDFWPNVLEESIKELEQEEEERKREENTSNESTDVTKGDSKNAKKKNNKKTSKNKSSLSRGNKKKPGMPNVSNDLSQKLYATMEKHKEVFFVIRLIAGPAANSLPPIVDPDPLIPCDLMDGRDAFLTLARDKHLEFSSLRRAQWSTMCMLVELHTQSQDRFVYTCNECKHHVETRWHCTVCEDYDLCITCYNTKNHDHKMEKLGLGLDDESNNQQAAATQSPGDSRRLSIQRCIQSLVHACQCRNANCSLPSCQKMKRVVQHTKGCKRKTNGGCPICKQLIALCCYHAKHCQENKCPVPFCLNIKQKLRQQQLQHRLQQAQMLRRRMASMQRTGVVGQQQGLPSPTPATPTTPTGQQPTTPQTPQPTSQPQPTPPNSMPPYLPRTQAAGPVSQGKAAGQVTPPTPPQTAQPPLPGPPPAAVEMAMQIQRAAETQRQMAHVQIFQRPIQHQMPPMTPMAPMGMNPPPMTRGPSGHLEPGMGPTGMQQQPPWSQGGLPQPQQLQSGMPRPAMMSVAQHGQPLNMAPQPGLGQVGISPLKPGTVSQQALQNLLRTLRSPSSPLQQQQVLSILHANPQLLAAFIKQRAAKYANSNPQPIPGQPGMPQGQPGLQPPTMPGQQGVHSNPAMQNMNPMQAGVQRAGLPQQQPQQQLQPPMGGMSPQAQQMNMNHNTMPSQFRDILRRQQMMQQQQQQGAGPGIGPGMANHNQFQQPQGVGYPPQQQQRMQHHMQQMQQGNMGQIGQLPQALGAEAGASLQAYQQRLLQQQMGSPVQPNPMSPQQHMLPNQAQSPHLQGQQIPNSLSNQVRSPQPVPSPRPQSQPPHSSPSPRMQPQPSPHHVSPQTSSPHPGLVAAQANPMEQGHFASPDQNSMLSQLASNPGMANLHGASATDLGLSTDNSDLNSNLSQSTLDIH
Description: The HAT activity inhibitory ability of HAT inhibitors was evaluated using SensoLyte HAT(p300) Assay Kit (ANASPEC, AS-72172). Specifically, 7.5 μL of the compound of Examples […] diluted with assay buffer was added to 7.5 μL of recombinant p300 solution diluted 10 times with assay buffer, and the mixture was incubated at room temperature for 10 minutes. 7.5 μL of acetyl CoA solution diluted 10 times with assay buffer and 15 μL of histone H3 peptide diluted 10 times with assay buffer were added thereto, and the mixture was incubated at 37° C. for 30 minutes. 37.5 μL of Stop Solution was added to stop the reaction. 75 μL of p300 Developer solution diluted 50 times with assay buffer was added, and the mixture was incubated at room temperature for 30 minutes under light-shielded conditions. The fluorescence at 513 nm when irradiated with 389 nm excitation light was measured using a multiplate reader.

G-401 cells = assay: Cell proliferation inhibition experiment using G-401 cells; assay type: cell-based
Description: G-401 cells (derived from malignant rhabdoid tumor) were obtained from the American Type Culture Collection (ATCC). G-401 cells were cultured in McCoy's 5A medium containing 10% fetal bovine serum and 1% penicillin/streptomycin under conditions of 37° C. and 5% CO2.
500 cells per well were seeded in a 384-well plate. One day after seeding, Examples 1 to 35 were added so that the final concentration of DMSO was 0.1%, and the cells were cultured for 3 days. After the culture was completed, the cell viability was measured using CellTiter-Glo Luminescent Cell Viability Assay (Promega, G7570).

Structure (SMILES)	Solubility (in words) (Solubility test)	Pharmacokinetics (in words) [1]	Antitumor effect, oral administration (in words) (G-401 xenograft [2])	Antitumor effect, intravenous administration (in words) (G-401 xenograft [3])	Inhibitory effect on dopamine receptors (in words) (hDAT)	Inhibitory effect on serotonin receptors (in words) (hSERT)	HAT activity inhibition (in words) (recombinant p300)	Cell proliferation inhibitory effect on G-401 cells (in words) (G-401 cells)
CN1CC(N(Cc2ccc(F)cc2)C(=O)CN2C(=O)N[C@]3(C[C@@H](F)c4cc(-c5cnn(C)c5)ccc43)C2=O)(C(F)(F)F)C1 [Example 10, 2-[(1′S,3′R)-3′-fluoro-5′-(1-methyl-1H-pyrazol-4-yl)-2,5-dioxo-2′,3′-dihydrospiro[imidazolidine-4,1′-inden]-1-yl]-N-[(4-fluorophenyl)methyl]-N-[1-methyl-3-(trifluoromethyl)azetidin-3-yl]acetamide]	high solubility	excellent pharmacokinetics	strong antitumor effects	strong antitumor effects	did not show strong inhibitory activity	did not show strong inhibitory activity	–	–
CN1CC(N(Cc2ccc(F)cc2)C(=O)CN2C(=O)N[C@]3(C[C@@H](F)c4cc(-c5cnn(C)c5F)ccc43)C2=O)(C(F)(F)F)C1 [Example 15, 2-[(1′S,3′R)-3′-fluoro-5′-(5-fluoro-1-methyl-1H-pyrazol-4-yl)-2,5-dioxo-2′,3′-dihydrospiro[imidazolidine-4,1′-inden]-1-yl]-N-[(4-fluorophenyl)methyl]-N-[1-methyl-3-(trifluoromethyl)azetidin-3-yl]acetamide]	–	–	–	–	–	–	strong inhibition of HAT activity	strong cell proliferation inhibitory effect
CN1CC(N(Cc2ccc(F)cc2)C(=O)CN2C(=O)N[C@]3(C[C@@H](F)c4cc(-c5cn(C)nc5F)ccc43)C2=O)(C(F)(F)F)C1 [Example 17, 2-[(1′S,3′R)-3′-fluoro-5′-(3-fluoro-1-methyl-1H-pyrazol-4-yl)-2,5-dioxo-2′,3′-dihydrospiro[imidazolidine-4,1′-inden]-1-yl]-N-[(4-fluorophenyl)methyl]-N-[1-methyl-3-(trifluoromethyl)azetidin-3-yl]acetamide]	–	–	–	–	–	–	strong inhibition of HAT activity	strong cell proliferation inhibitory effect
CN1CC(N(Cc2ccc(F)cn2)C(=O)CN2C(=O)N[C@]3(C[C@@H](F)c4cc(-c5cnn(C)c5)ccc43)C2=O)(C(F)(F)F)C1 [Example 20, 2-[(1′S,3′R)-3′-fluoro-5′-(1-methyl-1H-pyrazol-4-yl)-2,5-dioxo-2′,3′-dihydrospiro[imidazolidine-4,1′-inden]-1-yl]-N-[(5-fluoropyridin-2-yl)methyl]-N-[1-methyl-3-(trifluoromethyl)azetidin-3-yl]acetamide]	high solubility	excellent pharmacokinetics	strong antitumor effects	strong antitumor effects	did not show strong inhibitory activity	did not show strong inhibitory activity	–	strong cell proliferation inhibitory effect
O=C1N[C@]2(C[C@@H](F)c3cc(-c4cnn(C5CCN(C6COC6)CC5)c4)ccc32)C(=O)N1CC(=O)N(Cc1ccc(F)cn1)C1(C(F)(F)F)COC1 [Example 23, 2-[(1′S,3′R)-3′-fluoro-5′-{1-[1-(oxetan-3-yl)piperidin-4-yl]-1H-pyrazol-4-yl}-2,5-dioxo-2′,3′-dihydrospiro[imidazolidine-4,1′-inden]-1-yl]-N-[(5-fluoropyridin-2-yl)methyl]-N-[3-(trifluoromethyl)oxetan-3-yl]acetamide]	high solubility	excellent pharmacokinetics	strong antitumor effects	strong antitumor effects	did not show strong inhibitory activity	did not show strong inhibitory activity	–	–
